Columns and labels:
[1] = molecular target: T1, Recombinant BTK^WT kinase (Homo sapiens, UniProt Q06187); experiment: BTK WT binding affinity (LanthaScreen TR-FRET); details: Kinase Tracer 236, 5 h incubation
T1 construct: purchased Invitrogen
Outline: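 Tracer-displacement TR-FRET: 2.5 nM recombinant BTK^WT, 2 nM Eu anti-His antibody and 15 nM Kinase Tracer 236 incubated with varying inhibitor concentrations for 5 h in Kinase Buffer A. Signal read at 340 nm excitation, 615/665 nm emission; IC50 from variable-slope log[inhibitor]–response fit.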

[2] = molecular target: T2, Recombinant BTK^C481S kinase (Homo sapiens, UniProt Q06187, C481S); experiment: BTK C481S binding affinity (LanthaScreen TR-FRET); details: Kinase Tracer 236, 5 h incubation
T2 construct: purchased SignalChem
Outline: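 BTK C481S tracer-displacement TR-FRET: 5 nM His-tagged kinase, 2 nM Eu anti-His antibody and 30 nM Kinase Tracer 236 incubated with titrated inhibitor for 5 h in Kinase Buffer A. Read at 340 nm excitation, 615/665 nm emission; IC50 from variable-slope log[inhibitor]–response fit.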

Recombinant EGFR = molecular target: T3, Recombinant EGFR (Homo sapiens, UniProt P00533); experiment: EGFR binding affinity (LanthaScreen TR-FRET); details: Kinase Tracer 199, 5 h incubation
T3 construct: purchased Invitrogen
Outline: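 TR-FRET binding (LanthaScreen) with recombinant EGFR; signal measured across a compound concentration range. IC50 obtained by fitting RFU against log[inhibitor] to a variable-slope model.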

[3] = system: OCI-Ly10 human DLBCL cells; experiment: OCI-Ly10 anti-proliferative activity (Resazurin); format: cell-based; details: Homo sapiens, OCI-Ly10, 72 h, OCI-Ly10 cells, 72 h compound treatment, Resazurin; read-out: Proliferation Assay OCI-Ly10-20% FBS
Outline: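 OCI-Ly10 human DLBCL cells, whose growth depends on NFκB signalling, were seeded at 7.5×10^3 cells per well in 96-well plates with a range of compound concentrations and kept at 37° C for 72 h. Resazurin was then added, and after 5 h fluorescence was read at 590 nm.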

T3 sequence (P00533 25-1210): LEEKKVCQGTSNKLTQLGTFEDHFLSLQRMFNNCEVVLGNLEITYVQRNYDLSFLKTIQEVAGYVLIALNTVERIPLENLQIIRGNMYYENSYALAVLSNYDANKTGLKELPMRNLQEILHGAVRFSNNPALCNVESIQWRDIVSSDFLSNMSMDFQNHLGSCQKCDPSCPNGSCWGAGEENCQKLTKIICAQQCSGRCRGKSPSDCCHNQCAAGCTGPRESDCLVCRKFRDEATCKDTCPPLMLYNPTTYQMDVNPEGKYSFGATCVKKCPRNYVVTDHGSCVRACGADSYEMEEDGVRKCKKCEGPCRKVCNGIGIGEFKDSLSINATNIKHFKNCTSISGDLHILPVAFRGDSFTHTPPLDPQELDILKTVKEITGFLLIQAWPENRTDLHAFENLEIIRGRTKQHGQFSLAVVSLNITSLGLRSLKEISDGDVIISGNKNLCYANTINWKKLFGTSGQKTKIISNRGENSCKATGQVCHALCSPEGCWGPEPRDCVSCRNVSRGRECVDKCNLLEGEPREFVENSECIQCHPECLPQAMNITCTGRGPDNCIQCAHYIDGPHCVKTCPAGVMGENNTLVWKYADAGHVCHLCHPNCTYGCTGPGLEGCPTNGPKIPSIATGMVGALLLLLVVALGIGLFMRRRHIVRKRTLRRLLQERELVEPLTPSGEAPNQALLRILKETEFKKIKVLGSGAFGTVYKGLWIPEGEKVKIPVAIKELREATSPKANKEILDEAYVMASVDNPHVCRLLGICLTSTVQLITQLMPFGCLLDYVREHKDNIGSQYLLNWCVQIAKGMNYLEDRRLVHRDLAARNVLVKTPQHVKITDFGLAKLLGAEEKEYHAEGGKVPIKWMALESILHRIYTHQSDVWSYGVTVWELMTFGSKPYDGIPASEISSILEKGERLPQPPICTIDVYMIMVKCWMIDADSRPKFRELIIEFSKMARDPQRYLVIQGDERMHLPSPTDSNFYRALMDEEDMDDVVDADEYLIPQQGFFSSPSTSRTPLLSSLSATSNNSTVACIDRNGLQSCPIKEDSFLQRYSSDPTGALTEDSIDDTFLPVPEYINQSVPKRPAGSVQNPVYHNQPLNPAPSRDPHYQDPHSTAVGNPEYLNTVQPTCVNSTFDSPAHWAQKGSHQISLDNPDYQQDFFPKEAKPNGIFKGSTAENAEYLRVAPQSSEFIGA
T2 sequence (Q06187 whole entry C481S): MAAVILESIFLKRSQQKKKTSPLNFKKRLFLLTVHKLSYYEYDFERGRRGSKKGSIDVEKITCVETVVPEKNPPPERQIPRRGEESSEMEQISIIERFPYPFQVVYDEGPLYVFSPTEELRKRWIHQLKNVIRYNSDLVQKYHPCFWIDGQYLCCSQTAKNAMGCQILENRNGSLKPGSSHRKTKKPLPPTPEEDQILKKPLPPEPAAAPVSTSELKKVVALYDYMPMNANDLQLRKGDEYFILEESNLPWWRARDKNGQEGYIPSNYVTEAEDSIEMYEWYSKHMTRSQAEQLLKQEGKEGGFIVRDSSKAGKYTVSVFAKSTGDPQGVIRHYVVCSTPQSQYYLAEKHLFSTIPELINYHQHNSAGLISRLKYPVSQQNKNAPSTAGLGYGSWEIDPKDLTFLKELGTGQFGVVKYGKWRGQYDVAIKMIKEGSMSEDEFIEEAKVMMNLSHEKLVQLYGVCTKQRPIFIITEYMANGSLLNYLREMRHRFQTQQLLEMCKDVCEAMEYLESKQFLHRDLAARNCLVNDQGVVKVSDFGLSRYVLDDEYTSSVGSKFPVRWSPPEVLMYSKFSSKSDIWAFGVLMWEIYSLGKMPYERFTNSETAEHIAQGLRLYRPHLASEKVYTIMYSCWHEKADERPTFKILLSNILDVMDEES
T1 sequence (Q06187 whole entry): as the sequence (Q06187 whole entry C481S) above, with S481C counted along it

`COc1ccccc1C(=O)NCc1ccc(-c2nn(C3CCCC3)c(C)c2C(N)=O)cc1` [Example 24, 1-Cyclopentyl-3-[4-[[(2-methoxybenzoyl)amino]methyl]phenyl]-5-methyl-pyrazole-4-carboxamide] gave an IC50 [1] of 10 to 100 nM, an IC50 [2] of 10 to 100 nM and an IC50 (Recombinant EGFR) of 1000 to 10000 nM. For the same compound, the IC50 [3] was 100 to 1000 nM.

`COc1ccccc1C(=O)NCc1ccc(-c2nn(CCc3nnn[nH]3)c(N)c2C(N)=O)cc1` [Example 25, 5-Amino-3-[4-[[(2-methoxybenzoyl)amino]methyl]phenyl]-1-[2-(1H-tetrazol-5-yl)ethyl]pyrazole-4-carboxamide] gave an IC50 [1] of 10 to 100 nM, an IC50 [2] of under 10 nM and an IC50 (Recombinant EGFR) of 1000 to 10000 nM. It also gave an IC50 [3] of over 10000 nM.

Compound `COc1ccccc1C(=O)NCc1ccc(-c2nn(C3CCC(C)(C)CC3)c(N)c2C(N)=O)cc1` [Example 26, 5-Amino-1-(4,4-dimethylcyclohexyl)-3-[4-[[(2-methoxybenzoyl)amino]methyl]phenyl]pyrazole-4-carboxamide] has an IC50 [1] of under 10 nM, an IC50 [2] of under 10 nM and an IC50 (Recombinant EGFR) of 10 to 100 nM. It also gave an IC50 [3] of under 10 nM.

Compound `COc1ccccc1C(=O)NCc1ccc(-c2nn(C3CC3)c(N)c2C(N)=O)cc1` [Example 29, 5-Amino-1-cyclopropyl-3-[4-[[(2-methoxybenzoyl)amino]methyl]phenyl]pyrazole-4-carboxamide] has an IC50 [1] of under 10 nM, an IC50 [2] of under 10 nM and an IC50 (Recombinant EGFR) of 1000 to 10000 nM. For the same compound, the IC50 [3] was 100 to 1000 nM.

Work on `COc1ccccc1C(=O)NCc1ccc(-c2nn(C)c(N)c2C(N)=O)cc1` [Example 30, 5-Amino-3-[4-[[(2-methoxybenzoyl)amino]methyl]phenyl]-1-methyl-pyrazole-4-carboxamide] yielded an IC50 [1] of 10 to 100 nM, an IC50 [2] of 10 to 100 nM and an IC50 (Recombinant EGFR) of over 10000 nM. The IC50 [3] was 100 to 1000 nM.

For `COc1ccccc1C(=O)NCc1ccc(-c2nn(CCO)c(N)c2C(N)=O)cc1` [Example 31, 5-Amino-1-(2-hydroxyethyl)-3-[4-[[(2-methoxybenzoyl)amino]methyl]phenyl]pyrazole-4-carboxamide], the IC50 [1] was 10 to 100 nM, the IC50 [2] was 10 to 100 nM and the IC50 (Recombinant EGFR) was over 10000 nM. For the same compound, the IC50 [3] was 1000 to 10000 nM.

`COc1ccccc1C(=O)NCc1ccc(-c2nn(-c3cccc(F)c3)c(N)c2C(N)=O)cc1` [Example 32, 5-amino-1-(3-fluorophenyl)-3-[4-[[(2-methoxybenzoyl)amino]methyl]phenyl]pyrazole-4-carboxamide] was tested, and the IC50 [1] was under 10 nM, the IC50 [2] was under 10 nM and the IC50 (Recombinant EGFR) was 100 to 1000 nM. For the same compound, the IC50 [3] was 10 to 100 nM.

In the case of `COc1ccccc1C(=O)NCc1ccc(-c2nn(C3CCC3)c(N)c2C(N)=O)cc1` [Example 35, 5-Amino-1-cyclobutyl-3-[4-[[(2-methoxybenzoyl)amino]methyl]phenyl]pyrazole-4-carboxamide], the IC50 [1] is reported as under 10 nM, the IC50 [2] is reported as under 10 nM and the IC50 (Recombinant EGFR) is reported as 1000 to 10000 nM. For the same compound, the IC50 [3] was 10 to 100 nM.

Work on `COc1ccccc1C(=O)NCc1ccc(-c2nn(C3CCOC3)c(N)c2C(N)=O)cc1` (centres unmarked) [Example 36, 5-Amino-3-[4-[[(2-methoxybenzoyl)amino]methyl]phenyl]-1-tetrahydrofuran-3-yl-pyrazole-4-carboxamide] yielded an IC50 [1] of under 10 nM, an IC50 [2] of under 10 nM and an IC50 (Recombinant EGFR) of 1000 to 10000 nM. For the same compound, the IC50 [3] was 10 to 100 nM.

`COc1ccccc1C(=O)NCc1ccc(-c2nn(C[C@@H]3CCCNC3)c(N)c2C(N)=O)cc1` [Example 38, 5-amino-3-[4-[[(2-methoxybenzoyl)amino]methyl]phenyl]-1-[[(3R)-3-piperidyl]methyl]pyrazole-4-carboxamide] showed an IC50 [1] of over 10000 nM, an IC50 [2] of 1000 to 10000 nM and an IC50 (Recombinant EGFR) of over 10000 nM. For the same compound, the IC50 [3] was over 10000 nM.

In the case of `COc1ccccc1C(=O)NCc1ccc(-c2nn(-c3ccccc3F)c(N)c2C(N)=O)cc1` [Example 39, 5-amino-1-(2-fluorophenyl)-3-[4-[[(2-methoxybenzoyl)amino]methyl]phenyl]pyrazole-4-carboxamide], the IC50 [1] is reported as under 10 nM, the IC50 [2] is reported as under 10 nM and the IC50 (Recombinant EGFR) is reported as 100 to 1000 nM. For the same compound, the IC50 [3] was 10 to 100 nM.

`CCOC(=O)C1CCC(n2nc(-c3ccc(CNC(=O)c4ccccc4OC)cc3)c(C(N)=O)c2N)CC1` (centres unmarked) [Example 40, Ethyl 4-[5-amino-4-carbamoyl-3-[4-[[(2-methoxybenzoyl)amino]methyl]phenyl]pyrazol-1-yl]cyclohexanecarboxylate] showed an IC50 [1] of under 10 nM, an IC50 [2] of under 10 nM and an IC50 (Recombinant EGFR) of 100 to 1000 nM. The IC50 [3] was 10 to 100 nM.

`COc1ccccc1C(=O)NCc1ccc(-c2nn(-c3ccc(F)cc3)c(N)c2C(N)=O)cc1` [Example 43, 5-amino-1-(4-fluorophenyl)-3-[4-[[(2-methoxybenzoyl)amino]methyl]phenyl]pyrazole-4-carboxamide] gave an IC50 [1] of under 10 nM, an IC50 [2] of under 10 nM and an IC50 (Recombinant EGFR) of 100 to 1000 nM. For the same compound, the IC50 [3] was 10 to 100 nM.

Work on `COc1ccccc1C(=O)NCc1ccc(-c2nn(-c3ccc(C)cc3)c(N)c2C(N)=O)cc1` [Example 44, 5-amino-3-[4-[[(2-methoxybenzoyl)amino]methyl]phenyl]-1-(p-tolyl)pyrazole-4-carboxamide] yielded an IC50 [1] of under 10 nM, an IC50 [2] of under 10 nM and an IC50 (Recombinant EGFR) of 100 to 1000 nM. For the same compound, the IC50 [3] was 10 to 100 nM.

Work on `COC(=O)c1ccc(-n2nc(-c3ccc(CNC(=O)c4ccccc4OC)cc3)c(C(N)=O)c2N)cc1` [Example 45, Methyl 4-[5-amino-4-carbamoyl-3-[4-[[(2-methoxybenzoyl)amino]methyl]phenyl]pyrazol-1-yl]benzoate] yielded an IC50 [1] of under 10 nM, an IC50 [2] of under 10 nM and an IC50 (Recombinant EGFR) of 1000 to 10000 nM. For the same compound, the IC50 [3] was 10 to 100 nM.

In the case of `COc1ccccc1C(=O)NCc1ccc(-c2nn(-c3ccccc3C)c(N)c2C(N)=O)cc1` [Example 47, 5-amino-3-[4-[[(2-methoxybenzoyl)amino]methyl]phenyl]-1-(o-tolyl)pyrazole-4-carboxamide], the IC50 [1] is reported as 10 to 100 nM, the IC50 [2] is reported as under 10 nM and the IC50 (Recombinant EGFR) is reported as 1000 to 10000 nM. For the same compound, the IC50 [3] was 100 to 1000 nM.

`COc1ccccc1C(=O)NCc1ccc(-c2nn(C3CCCC(O)C3)c(N)c2C(N)=O)cc1` (centres unmarked) [Example 48, 5-amino-1-(3-hydroxycyclohexyl)-3-[4-[[(2-methoxybenzoyl)amino]methyl]phenyl]pyrazole-4-carboxamide] gave an IC50 [1] of under 10 nM, an IC50 [2] of under 10 nM and an IC50 (Recombinant EGFR) of 100 to 1000 nM. It also gave an IC50 [3] of 100 to 1000 nM.

In the case of `COc1ccccc1C(=O)NCc1ccc(-c2nn(-c3ccc(CO)cc3)c(N)c2C(N)=O)cc1` [Example 49, 5-amino-1-[4-(hydroxymethyl)phenyl]-3-[4-[[(2-methoxybenzoyl)amino]methyl]phenyl]pyrazole-4-carboxamide], the IC50 [1] is reported as under 10 nM, the IC50 [2] is reported as under 10 nM and the IC50 (Recombinant EGFR) is reported as 100 to 1000 nM. For the same compound, the IC50 [3] was 10 to 100 nM.

`COc1ccccc1C(=O)NCc1ccc(-c2nn(-c3cccc(C)c3)c(N)c2C(N)=O)cc1` [Example 50, 5-amino-3-[4-[[(2-methoxybenzoyl)amino]methyl]phenyl]-1-(m-tolyl)pyrazole-4-carboxamide] gave an IC50 [1] of under 10 nM, an IC50 [2] of under 10 nM and an IC50 (Recombinant EGFR) of 100 to 1000 nM. For the same compound, the IC50 [3] was 10 to 100 nM.

With `COc1ccccc1C(=O)NCc1ccc(-c2nn(-c3cccnc3)c(N)c2C(N)=O)cc1` [Example 51, 5-amino-3-[4-[[(2-methoxybenzoyl)amino]methyl]phenyl]-1-(3-pyridyl)pyrazole-4-carboxamide] the IC50 [1] was under 10 nM, the IC50 [2] was under 10 nM and the IC50 (Recombinant EGFR) was 100 to 1000 nM. For the same compound, the IC50 [3] was 10 to 100 nM.

Work on `COc1ccccc1C(=O)NCc1ccc(-c2nn(C3Cc4ccccc4C3)c(N)c2C(N)=O)cc1` [Example 52, 5-amino-1-indan-2-yl-3-[4-[[(2-methoxybenzoyl)amino]methyl]phenyl]pyrazole-4-carboxamide] yielded an IC50 [1] of under 10 nM, an IC50 [2] of under 10 nM and an IC50 (Recombinant EGFR) of 100 to 1000 nM. It also gave an IC50 [3] of 10 to 100 nM.

`COc1ccccc1C(=O)NCc1ccc(-c2nn(-c3ccccn3)c(N)c2C(N)=O)cc1` [Example 53, 5-amino-3-[4-[[(2-methoxybenzoyl)amino]methyl]phenyl]-1-(2-pyridyl)pyrazole-4-carboxamide] gave an IC50 [1] of under 10 nM, an IC50 [2] of under 10 nM and an IC50 (Recombinant EGFR) of 100 to 1000 nM. The IC50 [3] was 10 to 100 nM.

In the case of `COc1ccccc1C(=O)NCc1ccc(-c2nn(-c3ccncc3)c(N)c2C(N)=O)cc1` [Example 54, 5-amino-3-[4-[[(2-methoxybenzoyl)amino]methyl]phenyl]-1-(4-pyridyl)pyrazole-4-carboxamide], the IC50 [1] is reported as 10 to 100 nM, the IC50 [2] is reported as under 10 nM and the IC50 (Recombinant EGFR) is reported as 1000 to 10000 nM. The IC50 [3] was 100 to 1000 nM.

Work on `COc1ccccc1C(=O)NCc1ccc(-c2nn(C3CC(=O)c4ccccc43)c(N)c2C(N)=O)cc1` (centres unmarked) [Example 59, 5-amino-3-[4-[[(2-methoxybenzoyl)amino]methyl]phenyl]-1-(3-oxoindan-1-yl)pyrazole-4-carboxamide] yielded an IC50 [1] of under 10 nM, an IC50 [2] of under 10 nM and an IC50 (Recombinant EGFR) of 1000 to 10000 nM. The IC50 [3] was 10 to 100 nM.

In the case of `CNc1c(C(N)=O)c(-c2ccc(CNC(=O)c3ccccc3OC)cc2)nn1C1CCCC1` [Example 60, 1-cyclopentyl-3-[4-[[(2-methoxybenzoyl)amino]methyl]phenyl]-5-(methylamino)pyrazole-4-carboxamide], the IC50 [1] is reported as under 10 nM, the IC50 [2] is reported as under 10 nM and the IC50 (Recombinant EGFR) is reported as 100 to 1000 nM. The IC50 [3] was 10 to 100 nM.

With `COc1ccccc1C(=O)NCc1ccc(-c2nn(-c3cc(F)ccc3F)c(N)c2C(N)=O)cc1` [Example 61, 5-amino-1-(2,5-difluorophenyl)-3-[4-[[(2-methoxybenzoyl)amino]methyl]phenyl]pyrazole-4-carboxamide] the IC50 [1] was under 10 nM, the IC50 [2] was under 10 nM and the IC50 (Recombinant EGFR) was 100 to 1000 nM. For the same compound, the IC50 [3] was 10 to 100 nM.

— patent US11826351B2, “Compounds useful as kinase inhibitors” (Loxo Oncology, Inc., priority 2015, dated 2023)
